Melting point data for 41 compounds are collected here from US7399775B2, “β-amyloid protein production/secretion inhibitor” (Daiichi Pharmaceutical Co., Ltd., priority 2001, dated 2008).

The compound `O=S(=O)(c1ccc(Cl)cc1)C(CCCc1ccccc1)c1cc(F)ccc1F` (centres unmarked) [Example 312, 2-[1-(4-Chlorophenylsulfonyl)-4-phenylbutyl]-1,4-difluorobenzene] came in with a melting point of 107 to 108 °C.

Turning to `Cc1ncsc1CCC(c1cc(F)ccc1F)S(=O)(=O)c1ccc(Cl)cc1` (centres unmarked) [Example 319, 5-[3-(4-Chlorophenylsulfonyl)-3-(2,5-difluorophenyl)propyl]-4-methyl-1,3-thiazole], the melting point was 183 to 184 °C.

As for `CS(=O)(=O)CCCCC(c1cccc(F)c1)S(=O)(=O)c1ccc(Cl)cc1` (centres unmarked) [Example 54, 1-[1-[(4-Chlorophenyl)sulfonyl]-5-(methylsulfonyl)pentyl]-3-fluorobenzene], the melting point lay in the range of 116 to 117 °C.

Turning to `O=S(=O)(c1ccc(Cl)cc1)C(C/C=C\CO)c1cc(F)ccc1F` (centres unmarked) [Example 247, (Z)-5-[(4-Chlorophenyl)sulfonyl]-5-(2,5-difluorophenyl)-2-penten-1-ol], the melting point fell in the range of 60 to 63 °C.

`C[S+]([O-])CCCCC(c1ccccc1)S(=O)(=O)c1ccc(Cl)cc1` (centres unmarked) [Example 52, 1-Chloro-4-(5-methylsulfinyl-1-phenylpentyl)sulfonylbenzene]: the melting point fell in the range of 98.5 to 99.5 °C.

`O=S(=O)(c1ccc(Cl)cc1)C(c1cc[n+]([O-])cc1)c1cc(F)ccc1F` (centres unmarked) [Example 340, 4-[(4-Chlorophenylsulfonyl)-(2,5-difluorophenyl)methyl]pyridin-N-oxide] gave a melting point of 211 to 212 °C.

Regarding `O=S(=O)(c1ccc(Cl)cc1)C(c1cc(F)ccc1F)C(O)CCCCO` (centres unmarked) [Example 235, 6-[(4-Chlorophenyl)sulfonyl]-6-(2,5-difluorophenyl)-1,5-hexanediol], the melting point lay in the range of 108 to 109 °C.

In turn, `O=C(O)CCCC(c1cc(F)ccc1F)S(=O)(=O)c1ccc(Cl)cc1` (centres unmarked) [Example 202, 5-[(4-chlorophenyl)sulfonyl]-5-(2,5-difluorophenyl)-1-valeric Acid] returned a melting point of 151 to 152 °C.

Compound `CS(=O)(=O)CCCCC(c1cscn1)S(=O)(=O)c1ccc(Cl)cc1` (centres unmarked) [Example 112, 4-[1-(4-Chlorophenylsulfonyl)-5-(methylsulfonyl)pentyl]thiazole] displayed a melting point of 123 to 125 °C.

`O=S(=O)(c1ccc(Cl)cc1)C1(c2cccnc2Cl)CCCCCC1` [Example 108, 2-Chloro-3-[1-(4-chlorophenylsulfonyl)cycloheptyl]pyridine]: the melting point was in the range of 168 to 169 °C.

`CS(=O)(=O)CCCCC(Cc1ccccc1)S(=O)(=O)c1ccc(Cl)cc1` (centres unmarked) [Example 97, 4-[1-Benzyl-5-(methylsulfonyl)pentylsulfonyl]-1-chlorobenzene]: the melting point fell in the range of 68 to 70 °C.

In the case of `O=S(=O)(c1ccc(Cl)cc1)C(c1ccncc1)C1CCOCC1` (centres unmarked) [Example 122, 4-[(4-Chlorophenylsulfonyl)(tetrahydropyran-4-yl)methyl]pyridine], the melting point was 208 to 209 °C.

In turn, `O=C(OCCC(c1cc(F)ccc1F)S(=O)(=O)c1ccc(Cl)cc1)N1CCN(c2ccccc2)CC1` (centres unmarked) [Example 212, 3-[(4-Chlorophenyl)sulfonyl]-3-(2,5-difluorophenyl)propyl=4-phenyl1-piperazinecarboxylate] registered a melting point of 127 to 129 °C.

On to `O=S(=O)(c1ccc(Cl)cc1)C1(c2cc(F)ccc2F)CC[S+]([O-])CC1` (centres unmarked) [Example 252, 4-[(4-Chlorophenyl)sulfonyl]-4-(2,5-difluorophenyl)tetrahydrothiopyran-1-on], for which the melting point fell in the range of 173 to 182 °C.

In turn, `CS(=O)(=O)CCCCC(c1nccs1)S(=O)(=O)c1ccc(Cl)cc1` (centres unmarked) [Example 116, 2-[1-[(4-Chlorophenyl)sulfonyl]-5-(methylsulfonyl)pentyl]thiazole] showed a melting point of 118 to 119 °C.

`O=C(NCCCC(c1cc(F)ccc1F)S(=O)(=O)c1ccc(Cl)cc1)OCCI` (centres unmarked) [Example 224, 2-Iodoethyl N-[4-[(4-chlorophenyl)sulfonyl]-4-(2,5-difluorophenyl)butyl]carbamate] displayed a melting point of 100 to 101 °C.

On to `O=S(=O)(c1ccc(Cl)cc1)C(CCc1ccccn1)c1cc(F)ccc1F` (centres unmarked) [Example 318, 2-[3-(4-chlorophenylsulfonyl)-3-(2,5-difluorophenyl)propyl]pyridine], for which the melting point lay within 129 to 131 °C.

Take `O=S(=O)(c1ccc(Cl)cc1)C(CCSCCO)c1cc(F)ccc1F` (centres unmarked) [Example 250, 2-[3-[(4-Chlorophenyl)sulfonyl]-3-(2,5-difluorophenyl)propylthio]ethanol]: the melting point was in the range of 108 to 110 °C.

As for `CCOC(=O)NCCC(c1cc(F)ccc1F)S(=O)(=O)c1ccc(Cl)cc1` (centres unmarked) [Example 222, Ethyl N-[3-[(4-chlorophenyl)sulfonyl]-3-(2,5-difluorophenyl)propyl]carbamate], the melting point was in the range of 121 to 122 °C.

The compound `CN(C)CC(=O)N1CCC(c2cc(F)ccc2F)(S(=O)(=O)c2ccc(Cl)cc2)CC1` [Example 271, 1-[4-[(4-Chlorophenyl)sulfonyl]-4-(2,5-difluorophenyl)piperidino]-2-(dimethylamino)-1-ethanone] registered a melting point of 88 to 92 °C.

As for `CS(=O)(=O)CCCCC(c1cccc(F)c1F)S(=O)(=O)c1ccc(Cl)cc1` (centres unmarked) [Example 77, 1-[1-(4-Chlorophenylsulfonyl)-5-(methylsulfonyl)pentyl]-2,3-difluorobenzene], the melting point is 141 to 143 °C.

The compound `O=S(=O)(c1ccc(Cl)cc1)C(CCc1ccccc1)c1cc(F)ccc1F` (centres unmarked) [Example 304, 2-[1-(4-Chlorophenylsulfonyl)-3-phenylpropyl]-1,4-difluorobenzene] registered a melting point of 111 to 113 °C.

Consider `O=S(=O)(c1ccc(Cl)cc1)C1(c2cnccc2Cl)CCCCC1` [Example 110, 4-Chloro-3-[1-(4-chlorophenylsulfonyl)cyclohexyl]pyridine], for which the melting point was 145 to 147 °C.

Consider `CS(=O)(=O)CCCCC(c1cc(F)cc(F)c1)S(=O)(=O)c1ccc(Cl)cc1` (centres unmarked) [Example 72, 1-[1-[(4-Chlorophenyl)sulfonyl]-5-(methylsulfonyl)pentyl]-3,5-difluorobenzene], for which the melting point is 126 to 127 °C.

In the case of `O=C(c1ccccn1)N1CCC(c2cc(F)ccc2F)(S(=O)(=O)c2ccc(Cl)cc2)CC1` [Example 266, [4-[(4-Chlorophenyl)sulfonyl]-4-(2,5-difluorophenyl)piperidino](2-pyridyl)methanone], the melting point was in the range of 193 to 196 °C.

Compound `CCCCCCC(c1cc(F)ccc1F)S(=O)(=O)c1ccc(Cl)cc1` (centres unmarked) [Example 323, 2-[1-(4-Chlorophenylsulfonyl)heptyl]-1,4-difluorobenzene] displayed a melting point of 77 to 78 °C.

In the case of `O=S(=O)(c1ccc(Cl)cc1)C(CCc1ccc(Cl)cc1)c1cc(F)ccc1F` (centres unmarked) [Example 310, 2-[3-(4-Chlorophenyl)-1-(4-chlorophenylsulfonyl)propyl]-1,4-difluorobenzene], the melting point lay within 124 to 126 °C.

For the compound `Cl.O=S(=O)(c1ccc(Cl)cc1)C(c1cc(F)ccc1F)C1CCNCC1` (centres unmarked), the melting point was 184 to 190 °C.

On to `CCCC(=O)C(c1cc(F)ccc1F)S(=O)(=O)c1ccc(Cl)cc1` (centres unmarked) [Example 7, 1-[(4-Chlorophenyl)sulfonyl]-1-(2,5-difluorophenyl)-2-pentanone], for which the melting point was 85.5 to 86 °C.

`O=S(=O)(c1ccc(Cl)cc1)C(CCCCCBr)c1cc(F)ccc1F` (centres unmarked) [Example 37, 2-[6-Bromo-1-[(4-chlorophenyl)sulfonyl]hexyl]-1,4-difluorobenzene]: the melting point was in the range of 77 to 79 °C.

On to `O=S(=O)(c1ccc(Cl)cc1)C1(c2cc(F)ccc2F)CC1` [Example 233, 2-[1-[(4-Chlorophenyl)sulfonyl]cyclopropyl]-1,4-difluorobenzene], for which the melting point fell in the range of 177 to 179 °C.

In turn, `CS(=O)(=O)NCCC(c1cc(F)ccc1F)S(=O)(=O)c1ccc(Cl)cc1` (centres unmarked) [Example 245, N-[3-(4-Chlorophenylsulfonyl)-3-(2,5-difluorophenyl)propyl]methanesulfonamide] yielded a melting point of 131 to 134 °C.

`C=CCOc1cccnc1C(c1cc(F)ccc1F)S(=O)(=O)c1ccc(Cl)cc1` (centres unmarked) [Example 140, 3-Allyloxy-2-[[(4-chlorophenyl)sulfonyl]-(2,5-difluorophenyl)methyl]pyridine] came in with a melting point of 119 to 120 °C.

The compound `O=C1OCCN1CCCC(c1cc(F)ccc1F)S(=O)(=O)c1ccc(Cl)cc1` (centres unmarked) [Example 225, 3-[4-[(4-Chlorophenyl)sulfonyl]-4-(2,5-difluorophenyl)butyl]-2-oxazolidinone] displayed a melting point of 156 to 159 °C.

`CS(=O)(=O)CCCCC(c1cnccc1Cl)S(=O)(=O)c1ccc(Cl)cc1` (centres unmarked) [Example 105, 4-Chloro-3-[1-[(4-chlorophenyl)sulfonyl]-5-(methylsulfonyl)pentyl]pyridine]: the melting point is 156 to 157 °C.

In turn, `CS(=O)(=O)NCCCCC(c1cc(F)ccc1F)S(=O)(=O)c1ccc(Cl)cc1` (centres unmarked) [Example 242, N-[5-[(4-Chlorophenyl)sulfonyl]-5-(2,5-difluorophenyl)pentyl]methanesulfonamide] yielded a melting point of 106 to 107 °C.

For the compound `O=C(CCCCC(c1cc(F)ccc1F)S(=O)(=O)c1ccc(Cl)cc1)N1CCCC1` (centres unmarked) [Example 204], the melting point fell in the range of 135 to 136 °C.

Compound `COc1ccc(-n2ccnc2C(c2cc(F)ccc2F)S(=O)(=O)c2ccc(Cl)cc2)cc1` (centres unmarked) [Example 153, 2-[[(4-Chlorophenyl)sulfonyl]-(2,5-difluorophenyl)methyl]-1-(4-methoxyphenyl)-1H-imidazole] returned a melting point of 150 to 151 °C.

`CN(C)S(=O)(=O)NCc1ccc(C(c2cc(F)ccc2F)S(=O)(=O)c2ccc(Cl)cc2)nc1` (centres unmarked) [Example 356, N-[[6-[(4-Chlorophenylsulfonyl)(2,5-difluorophenyl)methyl]pyridin-3-yl]methyl]-N′,N′-dimethylsulfamide] gave a melting point of 177 to 178 °C.

`O=S(=O)(c1ccc(Cl)cc1)C(CCCC1CCCCC1)c1cc(F)ccc1F` (centres unmarked) [Example 317, 2-[1-(4-Chlorophenylsulfonyl)-4-cyclohexylbutyl]-1,4-difluorobenzene] gave a melting point of 47 to 49 °C.

`Cc1ccc(CCC(c2cc(F)ccc2F)S(=O)(=O)c2ccc(Cl)cc2)cc1` (centres unmarked) [Example 307, 2-[1-(4-Chlorophenylsulfonyl)-3-(4-methylphenyl)propyl]-1,4-difluorobenzene]: the melting point was 82 to 84 °C.

A word on the melting point: it is the temperature of the solid-liquid transition.
